Here are results for 4 molecules from paper PMC9404985, “Development of Dicationic Bisguanidine-Arylfuran Derivatives as Potent Agents against Gram-Negative Bacteria” (Antibiotics, 2022).

Series [1] has as its system P. aeruginosa (CCUG #59347). The series is described as follows: Antibacterial activity against isolates (Omnilog, Biolog redox dye). Format: cell-based, Pseudomonas aeruginosa. Particulars: for pEC50 / EC90: Pseudomonas aeruginosa, CCUG59347, ca-MH broth, 24 h, 37 °C; for Selectivity index P. aeruginosa (CCUG #59347): SI = ((EC50 MCF-7 + EC50 HepG2)/2)/EC50 bacterial strain. The method, then:
(§1) The antibacterial activities of eight compounds (1, 3, 4, 6, 8, 10, 16, and 17) were tested against 10 different isolates of Gram-negative bacteria from human and other sources, two E. coli (CCUG #67180 and CCUG #17620/ATCC #25922, control strain), two K. pneumoniae (CCUG #58547 and CCUG #225T), two P. aeruginosa (CCUG #17619 and CCUG #59347), two A. baumannii (CCUG #57035 and CCUG #57250), E. cloacae (CCUG #6323T), and E. hormaechei (CCUG #58962) in a 96-well plate format. […] Bacterial mass from the ten isolates grown overnight on horse blood or Mueller–Hinton agar plates was suspended in ca-MH and adjusted to a final inoculum cell density of ~5 × 10^5 CFU/mL. For all assays, Biolog redox dye A diluted 100× from the stock solution was used for measurements of all ten isolates (up to a total volume of 120 µL per well). All plates included one well per isolate with only inoculum and dye but no test compound (i.e., positive control) and one well per isolate with inoculum, dye and DMSO diluted 1667×, corresponding to the DMSO concentration in the wells with the highest concentration of test compound. All measurements were performed using the Omnilog microplate reader (Biolog, Hayward, CA, USA) where the 96-well plates were read at 15 min intervals for a total of 24 h at 37 °C.

The subject of series [2] is K. pneumoniae (CCUG #225T). The description is as above. It is filed as cell-based, Klebsiella pneumoniae. The settings on record: for pEC50 / EC90: Klebsiella pneumoniae, ca-MH broth, 24 h, 37 °C; for Selectivity index K. pneumoniae (CCUG #225T): SI = ((EC50 MCF-7 + EC50 HepG2)/2)/EC50 bacterial strain. The method, then: (§2) The antibacterial activities of eight compounds (1, 3, 4, 6, 8, 10, 16, and 17) were tested against 10 different isolates of Gram-negative bacteria from human and other sources, two E. coli (CCUG #67180 and CCUG #17620/ATCC #25922, control strain), two K. pneumoniae (CCUG #58547 and CCUG #225T), two P. aeruginosa (CCUG #17619 and CCUG #59347), two A. baumannii (CCUG #57035 and CCUG #57250), E. cloacae (CCUG #6323T), and E. hormaechei (CCUG #58962) in a 96-well plate format. The compounds to test were 3-fold diluted in six steps in cation-adjusted Mueller-Hinton (ca-MH) broth to final concentrations spanning from 30 to 0.12 µM, i.e., a 1667–416,667 times dilution from the 50 mM stocks. Bacterial mass from the ten isolates grown overnight on horse blood or Mueller–Hinton agar plates was suspended in ca-MH and adjusted to a final inoculum cell density of ~5 × 10^5 CFU/mL. For all assays, Biolog redox dye A diluted 100× from the stock solution was used for measurements of all ten isolates (up to a total volume of 120 µL per well). All plates included one well per isolate with only inoculum and dye but no test compound (i.e., positive control) and one well per isolate with inoculum, dye and DMSO diluted 1667×, corresponding to the DMSO concentration in the wells with the highest concentration of test compound. All measurements were performed using the Omnilog microplate reader (Biolog, Hayward, CA, USA) where the 96-well plates were read at 15 min intervals for a total of 24 h at 37 °C.

A short description of series [3]: Cytotoxicity assay (PrestoBlue) HepG2. The settings on record: human, HepG2 cells (hepatoma cell line), 24 h incubation. It is filed as cell-based.
In series [4] the test system is K. pneumoniae (CCUG #58547). The experiment in a line: Antibacterial activity against isolates (Omnilog, Biolog redox dye). Particulars: for pEC50 / EC90: Klebsiella pneumoniae, CCUG58547, ca-MH broth, 24 h, 37 °C; for Selectivity index K. pneumoniae (CCUG #58547): SI = ((EC50 MCF-7 + EC50 HepG2)/2)/EC50 bacterial strain. It is filed as cell-based, Klebsiella pneumoniae. The method, then:
as §1

Series [5] relates to E. cloacae (CCUG #6323T). The series is described as above. It is filed as cell-based, Enterobacter cloacae. Particulars: for pEC50 / EC90: Enterobacter cloacae, ca-MH broth, 24 h, 37 °C; for Selectivity index E. cloacae (CCUG #6323T): SI = ((EC50 MCF-7 + EC50 HepG2)/2)/EC50 bacterial strain. On the procedure: as §2
Series [6] relates to P. carotovorum (NBRC/ATCC #3380). The experiment in a line: Antibacterial resazurin assay, laboratory strain. Particulars: for EC90: read-out: Pcar EC90; for Selectivity index P. carotovorum: mean of MCF-7 and HepG2 EC50 over bacterial EC50, laboratory strain. For orientation: Alamar Blue is a resazurin reagent that responds to reducing activity.
The test system of series [7] is P. putida (NBRC/ATCC #100650). The series is described as follows: Antibacterial resazurin assay, laboratory strain. The settings on record: for EC90: read-out: Ppu EC90; for Selectivity index P. putida: mean of MCF-7 and HepG2 EC50 over bacterial EC50, laboratory strain.
Series [8] relates to E. coli MG1655 (CGSC #6300). The experiment in a line: Antibacterial resazurin assay, laboratory strain. The settings on record: for pEC50 / EC90: Escherichia coli, MG1655, 18 h; for pEC50: read-out: Eco EC50; for EC90: read-out: Eco EC90; for Selectivity index E. coli: mean of MCF-7 and HepG2 EC50 over bacterial EC50, laboratory strain.
The subject of series [9] is B. subtilis (NBRC/ATCC #111470). The experiment in a line: Antibacterial resazurin assay, laboratory strain. Particulars: for pEC50 / EC90: Bacillus subtilis, ATCC111470, 18 h; for pEC50: read-out: Bsu EC50; for EC90: read-out: Bsu EC90; for Selectivity index B. subtilis: mean of MCF-7 and HepG2 EC50 over bacterial EC50, laboratory strain.
[10] abbreviates: Pectobacterium carotovorum, ATCC3380, 18 h, read-out: Pcar EC50, laboratory strain, 18 h, 37 °C, AlamarBlue.
The mark [11] stands for this setting: Pectobacterium carotovorum, ATCC3380, 18 h.
Where [12] appears, read: Pseudomonas putida, ATCC100650, 18 h, read-out: Ppu EC50, laboratory strain, 18 h, 37 °C, AlamarBlue.
Where [13] appears, read: Pseudomonas putida, ATCC100650, 18 h.

pEC50: −log10 of the molar value. Like-named read-outs stand apart in the source and are kept apart here. A value given as a limit tells only on which side of the number the result lay.

`COc1cc(NC(=N)N)ccc1-c1ccc(-c2ccc(NC(=N)N)cc2OC)o1` [Compound 6, 2,5-Bis(4-guanidino-2-methoxyphenyl)furan]: the pEC50 is 4.26 in series [1]; 4.99 in [2]; 4.89 in series [4]; 5.28 in series [5]; about 4.55 in series [6] (setting [10]); 4.55 in series [6] (read-out: Pcar EC50, laboratory strain, 18 h, 37 °C, AlamarBlue). Besides, the pEC50 in [7] (setting [12]) is about 4.84; in [7] (read-out: Ppu EC50, laboratory strain, 18 h, 37 °C, AlamarBlue) it was 4.84; in series [8] it was 4.45; in series [9], under 3.52. Further, the EC90 was found to be 65.3 µM in series [1]; 12.7 µM in [2]; 13.7 µM in [4]; 8.4 µM in [5]; 45 µM in series [6] (setting [11]); 19.7 µM in series [7] (setting [13]). The EC90 was 76.3 µM in series [8] and over 300 µM in series [9]. In series [1], the “Selectivity index P. aeruginosa (CCUG #59347)” value is given as 2.6. In addition, in series [2], the “Selectivity index K. pneumoniae (CCUG #225T)” value is listed as 14.0. The molecule also came in with an EC50 at 24 h in series [3] of 213 µM. Moreover, in series [4], the “Selectivity index K. pneumoniae (CCUG #58547)” value is given as 11.1. For the same molecule, in series [5], the “Selectivity index E. cloacae (CCUG #6323T)” value (shortened to “Selectivity index E. cloacae”) stood at 27.4. In series [6], the “Selectivity index P. carotovorum” value was determined as 5.1. For the same molecule, the “Selectivity index P. putida” value in series [7] came out at 10.1. Also, the “Selectivity index E. coli” value in [8] was 4.0.
With `COC(=O)c1cc(NC(=N)N)ccc1-c1ccc(-c2ccc(NC(=N)N)cc2C(=O)OC)o1` [Compound 8, 2,5-Bis(4-guanidino-2-(methylcarboxy)phenyl)furan], the pEC50 in [1] was under 3.70; in [2] it was 5.25; in [4], 4.99; in series [5], 5.32; in [6] (setting [10]), 3.85; in [7] (setting [12]), 4.16. The figures for the pEC50 in series [8] and in series [9] were 4.02 and 4.65, respectively. Moreover, the concentration for an effect of 90% (EC90) is over 200 µM in series [1]; 7.9 µM in series [2]; 13.3 µM in series [4]; 7.1 µM in series [5]; 158 µM in series [6] (setting [11]); 92.1 µM in series [7] (setting [13]). In addition, the figures for the EC90 in [8] and in series [9] were 129 µM and 43.6 µM, respectively. In [2], the “Selectivity index K. pneumoniae (CCUG #225T)” value worked out at 43.3. A half-maximal response in series [3] (EC50 at 24 h) required 405 µM. The “Selectivity index K. pneumoniae (CCUG #58547)” value in series [4] amounted to 23.6. The “Selectivity index E. cloacae” value in [5] was found to be 50.8. Further, in series [6], the “Selectivity index P. carotovorum” value amounted to 1.7. In addition, the “Selectivity index P. putida” value in series [7] is 3.6. The “Selectivity index E. coli” value in series [8] is 2.5. Moreover, in [9], the “Selectivity index B. subtilis” value worked out at 10.8.
Take `N=C(N)NCc1ccc(-c2ccc(-c3ccc(CNC(=N)N)cc3)o2)cc1` [Compound 10, 2,5-Bis(4-guanidinomethylphenyl)furan]: the pEC50 in series [1] is under 3.70; in series [2] it was under 3.70; in series [4], under 3.70; in series [5], 4.91; in series [6] (setting [10]), 4.36; in [7] (setting [12]), 4.59. Further, the pEC50 in series [8] is 4.14; in series [9], under 3.52. Besides, the EC90 in series [1] is over 200 µM; in [2], over 200 µM; in series [4], over 200 µM; in [5], 24.7 µM; in series [6] (setting [11]) it was 61.2 µM; in series [7] (setting [13]) it was 36.7 µM. Besides, the EC90 in series [8] is 108 µM; in series [9] it was over 300 µM. This molecule also came in with an EC50 at 24 h in [3] of 137 µM. Besides, the “Selectivity index E. cloacae” value in series [5] stood at 7.5. Also, in [6], the “Selectivity index P. carotovorum” value turned out to be 2.1. Also, in series [7], the “Selectivity index P. putida” value is on record as 3.6. Besides, the “Selectivity index E. coli” value in series [8] is 1.3.
As for `N=C(N)Nc1ccc(-c2ccc(-c3ccc(NC(=N)N)cc3)o2)cc1` [Compound 3], the pEC50 is 5.28 in [1]; 5.55 in [2]; 5.25 in [4]; 5.82 in [5]; 4.46 in series [6] (setting [10]); 5.08 in [7] (setting [12]). Moreover, the figures for the pEC50 in [8] and in series [9] were 4.09 and 4.95, respectively. In addition, the EC90 in series [1] was 8.1 µM; in [2] it was 3.1 µM; in series [4], 8.3 µM; in series [5] it was 2.5 µM; in series [6] (setting [11]) it was 79 µM; in series [7] (setting [13]) it was 14.3 µM. For the same molecule, the results for the EC90 in [8] and in series [9] were 174 µM and 22.5 µM, respectively. Moreover, the “Selectivity index P. aeruginosa (CCUG #59347)” value in series [1] came to 24.1. The “Selectivity index K. pneumoniae (CCUG #225T)” value in [2] is 45.2. In addition, the EC50 at 24 h in [3] was determined as 185 µM. Further, in series [4], the “Selectivity index K. pneumoniae (CCUG #58547)” value is recorded as 22.1. For the same molecule, the “Selectivity index E. cloacae” value in series [5] stood at 83.1. Besides, in series [6], the “Selectivity index P. carotovorum” value was determined as 3.6. Besides, the “Selectivity index P. putida” value in series [7] is 15.0. Further, in series [8], the “Selectivity index E. coli” value is 1.5. Moreover, in series [9], the “Selectivity index B. subtilis” value is listed as 11.1.

A word on the pEC50: it is the EC50 on a negative log10 scale, so that one unit is a factor of ten. Broadly, the EC90 is the concentration at which the effect reaches the 90% level. What is called EC50 is the concentration at which the effect is half-maximal.
